In patent US5521315A, “Olefin substituted long chain compounds” (priority 1993, dated 1996):
Several values for one entry are separate records, joined by “and”; a condition that tells them apart may be missing. Equal entries are not always repeated.

Assays:
[1] = tested on: Saccharomyces cervisiae; test: Yeast growth inhibition assay; type: cell-based; details: FIG. 14
Description: Some of the inventive compounds are effective for inhibiting yeast cell growth. This effect can be assayed by measuring growth of the yeast strain Saccharomyces cervisiae. A control yeast stain Saccharomyces cervisiae (BIO 101, Inc.) is grown overnight in YEPD broth at 30° C. A one to hundred dilution of the yeast culture is made with fresh YEPD broth. 100 μl Aliquots of the diluted culture are distributed into 96-wells titer plates. 100 μl Aliquots of drug is diluted in YEPD broth were then added to the wells. The titer plates are incubated at room temperature with continuous shaking. The cell density of the individual cultures are determined using a microplate reader with a A630 filter. The A630 of the individual yeast cultures are compared to control samples without adding drug. This assay is predictive of direct antimicrobial, particularly yeast and fungal, activity of the drugs studied.
This example illustrates the effects of CT2501R (a reference compound), CT2536R, CT2536S, CT1596R, and CT1596S of yeast growth (Saccromyces cerevasie) in the presence or absence of drug. These assays measure anti-yeast and anti-fungal activity of the drugs tested. […] Therefore either the R enantiomer, the S enantiomer or a racemic mixture of CT2536 are potential topical or systemic antimicrobial drugs.

[2] = tested on: PBMC (peripheral blood mononuclear cells); test: Two-way mixed lymphocyte reaction (MLR), proliferation of PBMC to allogeneic stimulation; type: cell-based, human; details: FIGS. 3 and 4
Description: Various in vitro assays can be used to measure effects of the inventive compounds to module immune activity and have antitumor activity using a variety of cellular types. For example, a mixed lymphocyte reaction (MLR) provides a valuable screening tool to determine biological activity of each inventive compound. In the MLR, PBMCs (peripheral blood mononuclear cells) are obtained by drawing whole blood from healthy volunteers in a heparinized container and diluted with an equal volume of hanks balanced salt solution (HBSS). This mixture is layered on a […] density gradient, such as a Ficoll-Hypaque® gradient (specific gravity 1.08), and centrifuged at 1000×g for 25 minutes at room temperature or cooler. PBMC are obtained from a band at a plasma-Ficoll interface, separated and washed at least twice in a saline solution, such as HBSS. Contaminating red cells are lysed, such as by ACK lysis for 10 min at 37° C., and the PBMCs are washed twice in HBSS. The pellet of purified PBMCs is resuspended in complete medium, such as RPMI 1640 plus 20% human inactivated serum. Proliferative response of PBMC to allogeneic stimulation is determined in a two-way MLR performed in a 96-well microliter plate. Briefly, approximately 10^5 test purified PBMC cells in […] complete medium are co-cultured with approximately 10^5 autologous (control culture) or allogeneic (stimulated culture) PBMC cells, wherein the allogeneic cells are from HLA disparate individuals. Varying doses of compounds (drug) are added at the time of addition of cells to the microtiter plate. The cultures are incubated for 6 days at 37° C. in a 5% CO2 atmosphere. At the conclusion of the incubation tritiated thymidine is added (for example, […] of 40 to 60 Ci/mmole) and proliferation determined by liquid scintillation counting.
This example illustrates a mixed lymphocyte reaction assay of inventive compounds by showing the IC50 value of each compound in this assay and a dose response of several compounds to illustrate an IC50 determination.

[3] = tested on: mast cell degranulation; test: Serotonin release assay (inhibition of mast cell degranulation); type: cell-based; set-up: INCORP / TOTAL: unit not given here; details: 50 μM; for RELEASE-SPONT: average corrected for spontaneous release; for AVERAGE % RELEASE: average of duplicates; for % RELEASE / INCORP / RELEASE / RELEASE X2 / TOTAL: duplicate wells; for inhibition at 50 µM: Mast cell
Description: A serotonin release assay is utilized to study the utility of the inventive compounds for treatment of asthma and allergy. […] This assay measures mast cell degranulation, which is an early phase reaction to allergen challenge. Mast cells grown in tissue culture are first loaded with ^3 H serotonin, which is incorporated into the granules in the cells. The mast cells are sensitized with antigen specific monoclonal IgE, and then triggered to degranulate with the specific antigen (dinitorphenolbound to BSA (DNP)). When the cells degranulate, ^3 H Serotonin is released into the medium, and can be measured directly. The ability of the inventive compounds to inhibit the degranulation response is determined by the decrease in ^3 H Serotonin released in the presence of drug and is represented as % INHIBITION.
Specifically, the serotonin release assay seeds 2×10^5 cells in 0.5 ml medium in duplicate for spontaneous release, IgE+DNP, IgE+DNP+EtOH (vehicle control), and inventive compounds. […] The cells are incubated for 18 hours at 37° C. in 5% CO2, washed twice with 0.5 ml Isotonic Buffer (25 mM disodium PIPES pH 7.1,100 mM NaCl, 5 mM KCl, 5 mM glucose, 0.4 mM MgCl2, 1mM CaCl2, 0.1% BSA), and sterile filtered. 250 μl Isotonic Buffer is added per well and the plates are equilibrated in an incubator for about 10 min. Drug is added and cells are activated with 40 ng/ml DNP-BSA (1 mg/ml Diluted 1:200 in Isotonic Buffer) for 45 minutes using 2 μl/250 μl. Spontaneous release is determined in incubated cells with 250 μl Isotonic Buffer for 45 minutes and the reaction is stopped by removing supernatant and centrifuging at ~4000 rpm in microfuge for 15 seconds to remove any detached cells. Released radiolableled serotonin is counted. To determine amount of ^3 H-serotonin incorporated into the cells, (a) remove Isotonic Buffer and lyse cells by adding 250 μl 1% Triton-X100 in PBS, (b) add to 5 ml scintillation fluid, (c) wash 2× with Triton/PBS, and (d) add washes to scintillation tube. Percent serotonin release is calculated by dividing the amount of released serotonin by the sum of incorporated plus released serotonin and correcting for spontaneous released serotonin. Compound inhibition is calculated by dividing the percent serotonin release in the presence of a compound by the percent serotonin release in the absence of the compound.
This assay is described above and provides an in vitro model for an allergy and asthma therapeutic product.

[4] = tested on: human stromal cells; test: PDGF-stimulated proliferation of human stromal cells; type: cell-based; details: 50 ng/ml PDGF-BB; drug one hour prior; FIGS. 15 and 16; read-out: IC50, stromal cell proliferation
Description: (§1) This assay is an in vitro model for restenosis and treatment of atherosclerosis and coronary artery disease. Stromal cells were starved in serum-free media for one day and then stimulated with 50 ng/ml PDGF-BB. The drugs were added at the indicated concentrations one hour prior to PDGF stimulation. Tritiated thymidine was added for one day at the time of PDGF stimulation and the cells were harvested and counted by liquid scintillation counting 24 hrs later.
Another assay for measuring activity of the inventive compounds involves determining PDGF (platelet derived growth factor) proliferative response using human-derived stromal cells. […] Two to three days later, the stromal cells are starved in serum-free media. Twenty four hours later, the cells are treated with a stimulating agent, such as PDGF-AA, PDGF-BB or basic FGF (fibroblast growth factor) with or without IL-1α or TNF, and tritiated thymidine. Cell proliferation is determined by liquid scintillation counting.
as §1

[5] = tested on: murine thymocyte; test: Murine thymocyte stimulated by ConA and IL-2 (T cell immune suppression); type: cell-based; details: FIGS. 8 and 9
Description: A thymocyte costimulator assay is conducted to evaluate the inventive compounds to inhibit activation and proliferation of thymocytes caused by stimulation with Con A and interleukin-1 (IL-1), or […]. Thymuses are obtained from mice (e.g., female Balb/C mice) and the thymuses are removed and dissociated into culture media (e.g., RPMI 1640 without serum supplementation). The dissociated thymus tissue and cell suspension is transferred to centrifuge tubes and allowed to settle, washed with HBSS and resuspended in serum-supplemented culture media (e.g., RPMI 1640 with 10% fetal calf serum). Any contaminating red cells are lysed, and viable cells are resuspended and counted. Thymocytes are plated (e.g., 96-well plates at a density of 2×10^5 cells/well) and a stimulating agent, such as Con A, IL-1 (e.g., IL-1α) or IL-2 is added to the well. The cells are incubated for 4 days at 37° C. On the fourth day, the cells are pulsed with tritiated thymidine and cell proliferation determined. Inventive compounds are added at the time of stimulating agent addition.
A third assay measures an ability of an inventive compound to inhibit IL-2-induced proliferation of murine thymocytes. Thymus glands are obtained from 4-6 week old mice and plated as a single cell suspension into flat bottomed wells in RPMI 1640 medium supplemented with 10% fetal calf serum. The inventive compounds are added to appropriate wells and the cells are incubated for 1-2 hrs. Concanavilin A (ConA, 0.25 mg/ml) and […] (20 ng/ml) are added and the plates are incubated for 4 days. Cell proliferation is determined as above.
FIG. 8 compares T cell immune suppression data of thirteen inventive compounds by comparing their IC50 values in a murine thymocyte stimulated by ConA and IL-2 in vitro model.

[6] = tested on: transformed cells (Ras 3T3) and normal 3T3 cells; test: Cytotoxicity in transformed cells (Ras 3T3) versus normal 3T3 cells; type: cell-based; details: LD50 comparison; FIG. 17
Description: Each inventive compound is investigated for cytotoxicity to determine appropriate doses for biological activity assays and to prevent cytotoxic reactions in in vitro assays when characterizing activity. Cells (e.g., NIH-3T3, Ras transformed 3T3 cells, malignant melanoma LD2 cells, etc.) are added to microtiter plates and drug is added about two days after plating. Cell viability is determined using a fluorescent viability stain (e.g., 2',7'-bis-(2-carboroxyethyl)-5-(and -6)-carboxyfluorescein acetoxymethyl ester, BCECF excitation 488 nm and emission 525 nm) 24, 48 or 72 hours after addition of the drug.
This example illustrates a comparison of cytotoxicity determinations for CT1534 and CT1539 in transformed cells (Ras 3T3) and in normal 3T3 cells to determine the in vitro LD50 value in both cell types and to look for differential cytotoxicity effects between the cell types.

[7] = tested on: CMV promoter activity in transformed (adenovirus) cells; test: CMV promoter assay (gene transcription and translation; cytotoxicity in transformed cells); type: cell-based
Description: (§2) FIG. 18 illustrates data regarding proliferative activity of various inventive compounds for inducting CMV promoter activity. The CMV promoter assay measures gene transcription and translation activity wherein any active compounds will have cytotoxic activity to inhibit cellular protein synthesis machinery in transformed (adenovirus) cells.
as §2, with “This example” for “FIG. 18”

Row | Compound | inhibition of yeast growth [1] | IC50 [2] | % INHIBITION ([3]; Table 4) | RELEASE-SPONT ([3]; Table 4) | AVERAGE % RELEASE ([3]; Table 4) | % RELEASE ([3]; Table 4) | INCORP ([3]; Table 4) | RELEASE ([3]; Table 4) | RELEASE X2 ([3]; Table 4) | TOTAL ([3]; Table 4) | % INHIBITION ([3]; Table 5) | IC50 [4] | T cell immune suppressing activity [5] | inhibition at 50 µM ([3]; Table 4) | differential cytotoxicity, transformed vs normal cells [6] | IC50 [7]
1 | CC(C)=CCCC(C)CCn1c(=O)c2c(ncn2C)n(C)c1=O (racemic) [CT1596] | enantiomeric selectivity | – | – | – | – | – | – | – | – | – | – | – | – | – | – | –
2 | C=CCCCCCCCCCn1c(=O)c2c(ncn2COC(=O)C(C)(C)C)n(C)c1=O [CT1403, 1-(10-undecenyl)-3-methyl-7-methylpivaloylxanthine] | – | 10 µM | 84.23% | 1.26% | 17.82% | 17.37% and 18.27% | 23246 and 25691 | 2443 and 2872 | 4886 and 5744 | 28132 and 31435 | 84.23% | < 10 µM | – | – | – | –
3 | C=CCCCCCCCn1c(=O)c2c(ncn2COC(=O)C(C)(C)C)n(C)c1=O [CT1411, 1-(8-nonenyl)-3-methyl-7-methylpivaloylxanthine] | – | – | 87.89% | 0.97% | 17.53% | 16.79% and 18.27% | 24627 and 24663 | 2484 and 2756 | 4968 and 5512 | 29595 and 30175 | 87.89% | < 10 µM | potent immune suppressing activity | – | – | –
4 | C=CCCCCn1c(=O)c2c(ncn2C)n(C)c1=O [CT1539, 1-(5-hexenyl)-3,7-dimethylxanthine] | – | – | – | 5.15% | 21.71% | – | – | – | – | – | – | – | – | 35.8% | equally cytotoxic for both cell types | > 500 µM
5 | CC(C)=CCC[C@@H](C)CCCn1c(=O)c2c(ncn2C)n(C)c1=O [CT2536R, 1-(4-(R)-Methyl-8-methylnon-7-enyl)-3,7-dimethylxanthine] | strongly inhibited yeast growth | – | – | -0.55% | 16.00% | – | – | – | – | – | – | – | – | 107% | – | 30 µM
6 | CC(C)=CCC[C@H](C)CCCn1c(=O)c2c(ncn2C)n(C)c1=O [CT2536S, 1-(4-(S)-Methyl-8-methylnon-7-enyl)-3,7-dimethylxanthine] | strongly inhibited yeast growth | – | – | 0.21% | 16.76% | – | – | – | – | – | – | – | – | 97.4% | – | 30 µM
